Source: US6716829B2, “Aldosterone antagonist and cyclooxygenase-2 inhibitor combination therapy to prevent or treat inflammation-related cardiovascular disorders” (Pharmacia Corporation, priority 2000, dated 2004)
Values joined by “and” are separate entries in the source; they are usually repeats but may differ in a detail not shown here. Identical values can stand only once. “Also recorded” adds a separate entry of the source.

How the values were obtained:
[1] = system: aldosterone-infused, saline-drinking, uni-nephrectomized rats; assay: Assay B: heart histology (hematoxylin&eosin), vascular inflammatory lesions and myocardial injury; assay type: in vivo, Male Sprague Dawley rats; conditions: eplerenone 100 mpk p.o., 0.6% KCl group, 4 weeks
Experimental: Assay B: In Vivo Aldosterone Infusion Model Male Sprague Dawley rats (n=39; BW=250 g) […] Uni-nephrectomy performed during implantation of mini-pumps 2. Aldosterone ([…], sc via alzet minipump) 2. […] 1. […] Sacrifice after 4 weeks. Hearts were harvested and divided by half through a transverse section at the mid-ventricles: The upper half was stored into formalin. The bottom part was snap-frozen in liquid nitrogen for biochemical analysis. Hearts were stained with hematoxylin&eosin and the collagen specific dye picro-sirius red and were analyzed for determination of interstitial collagen volume fraction and morphologic abnormalities (i.e. necrosis, vascular injury).

[2] = system: cyclooxygenase-2 (COX-2); assay: Assay C: COX-2 mRNA in heart by TaqMan RT-PCR; assay type: in vivo, Male Sprague-Dawley rats; conditions: for COX-2 (AU): mRNA; for COX-2 mRNA expression: myocardium, aldosterone + salt, 7, 14, 30 days, eplerenone 100 mg/kg/day
Experimental: (§1) The procedure of Assay B was expanded upon in a further study. […] Myocardial tissue from animals in each treatment group was examined after 7, 14, or 30 days of treatment.
(§2) Potassium chloride supplementation was added to the saline solution in order to prevent the potential hypokalemia associated with aldosterone excess.
(§3) At the time of the surgery, an Alzet 2002 osmotic minipump (Alza Corp., Palo Alto, Calif.) containing either vehicle (9% ethanol/87% propylene glycol/4% dH2O) or 1.0 mg/mL d-aldosterone (Sigma Chemical, St. Louis, Mo.) was inserted subcutaneously at the nape of the neck. Aldosterone was administered at a dose of 0.75 µg/hour. […] Animals were sacrificed from each group (n=8-13) after 7, 14, or 30 days of treatment.
(§4) The fluorogenic 5′-nuclease assay (TaqMan PCR) using Applied Biosystems' 7700 Sequence Detection System (Applied Biosystems, Foster City, Calif.) allowed for real time detection/quantitation of a specific gene by monitoring the increase in fluorescence of a gene-specific, dye-labeled oligonucleotide probe. Probes for target and reference genes were labeled at the 5′-end with a 6-carboxyfluorescein (6FAM) reporter dye and at the 3′-end with a 6-carboxy-N,N,N′,N′-tetramethylrhodamine (TAMRA) quencher dye. When the probe was annealed to the target gene, fluorescence of 6FAM was prevented by the close proximity of TAMRA. The exonuclease activity of Taq polymerase released the dyes from the oligonucleotide probe by displacing the probe from the target sequence resulting in fluorescence excitation in direct proportion to the amount of target message present. Data analysis was performed using the Sequence Detection System software from Applied Biosystems.
(§5) All primers and probes were designed using Primer Express software supplied with the 7700 Sequence Detection System and synthesized by Applied Biosystems. Standard curves using 5-fold dilutions of total RNA (from 200 ng to 320 pg) were performed to determine the efficiency of each primer/probe set in the TaqMan reaction prior to the analysis of the experimental samples. Primer/probe sets were designed from known sequences of rat genes to be analyzed. All target gene values were normalized to a reference gene, constitutively expressed cyclophilin. Primer/probe set sequences can be found in Table 8.
(§6) RNA was extracted from frozen (−80° C.) rat heart tissue using the Totally RNA Isolation Kit (Ambion, Inc., Austin, Tex.). Tissue was crushed using a stainless steel mortar and pestle, which had been chilled to −80° C. and transferred to a dounce homogenizer (Kontes, Vineland, N.J.) containing 3-10 mL cold denaturation buffer. Tissue was homogenized and transferred to a sterile, 15 mL polypropylene centrifuge tube. An equal volume of phenol:chloroform:isoamyl alcohol (25:24:1) was added, samples were shaken vigorously for 1 min, and incubated on ice for at least 15 min. Samples were centrifuged for 30 min at 10,000g. The aqueous phase was removed, 1/10 volume of a sodium acetate solution (3.0 M NaOAc pH 4.5) was added, samples were shaken or inverted for 10 seconds, and acid-phenol (premixed with isoamyl alcohol):chloroform (5:1, Ambion, Inc.) was added at an volume equivalent to the starting sample volume. Samples were shaken vigorously for 1 min, followed by a 15-min incubation on ice, and centrifuged for 30 min at 10,000 g. The aqueous phase removed and placed in a clean polypropylene tube. An equal volume of isopropanol (Sigma, St. Louis, Mo.) was added and the samples were mixed and incubated overnight at −20° C. The samples were centrifuged for 30 min at 10,000 g, the supernatant was removed and the RNA pellet was resuspended in DNAse/RNAse-free water. Samples were frozen at −80° C. for at least 2 hours, thawed on wet ice, and diluted for quantitation.

[3] = system: Intracellular adhesion molecule-1 (ICAM-1); assay: Assay C: ICAM-1 mRNA in heart by TaqMan RT-PCR; assay type: in vivo, Male Sprague-Dawley rats; conditions: for ICAM mRNA (AU): relative to cyclophilin expression, mean ± SEM, eplerenone dose 100 mg/kg/day; for ICAM (AU): mRNA; for ICAM-1 mRNA expression: myocardium, aldosterone + salt, 7, 14, 30 days, eplerenone 100 mg/kg/day
Experimental: as §1, §2, §3, §4, §5, §6

[4] = system: vascular cell adhesion molecule-1 (VCAM-1); assay: Assay C: VCAM-1 mRNA in heart by TaqMan RT-PCR; assay type: in vivo, Male Sprague-Dawley rats; conditions: for VCAM mRNA (AU): relative to cyclophilin expression, mean ± SEM, eplerenone dose 100 mg/kg/day; for VCAM (AU): mRNA; for VCAM-1 mRNA expression: myocardium, aldosterone + salt, 7, 14, 30 days, eplerenone 100 mg/kg/day
Experimental: as §1, §2, §3, §4, §5, §6

[5] = group mean, data used for Table 17 (7-day protocol)
[6] = group mean, data used for Table 18 (14-day protocol)
[7] = group mean, data used for Table 19 (30-day protocol)
[8] = individual rats, data used for Table 17 (7-day protocol), incl. rat marked * excluded from statistics, listed as Aldosterone + salt
[9] = individual rats, data used for Table 18 (14-day protocol), incl. rat marked * excluded from statistics, listed as Aldosterone + salt
[10] = individual rats, data used for Table 19 (30-day protocol), incl. rat marked * excluded from statistics, listed as Aldosterone + salt
[11] = individual rats, data used for Table 17 (7-day protocol), incl. rat marked * excluded from statistics, listed as Eplerenone + aldosterone + salt
[12] = individual rats, data used for Table 18 (14-day protocol), incl. rat marked * excluded from statistics, listed as Eplerenone + aldosterone + salt
[13] = individual rats, data used for Table 19 (30-day protocol), incl. rat marked * excluded from statistics, listed as Eplerenone + aldosterone + salt

In the case of `C[C@]12CCC(=O)C=C1CC[C@@H]1[C@@H]2[C@@H](O)C[C@]2(C=O)[C@@H](C(=O)CO)CC[C@@H]12` [Aldosterone], the “Vascular inflammatory changes / myocardial injury” value [1] is reported as “severe vascular inflammatory lesions”, the “COX-2 (AU)” value [2, 5] is reported as 2.22 AU and the “COX-2 (AU)” value [2, 6] is reported as 4.34 AU. For the same compound, the “COX-2 (AU)” value [2, 7] was 4.53 AU, the “COX-2 (AU)” value [2, 8] was 2.10 AU and 0.70 AU and 2.01 AU and 2.95 AU and 2.05 AU and 1.94 AU and 3.54 AU and 2.45 AU and 0.82 AU and the “COX-2 (AU)” value [2, 9] was 7.39 AU and 1.83 AU and 5.80 AU and 2.59 AU and 6.63 AU and 4.18 AU and 3.71 AU and 2.62 AU and 23.34 AU. For the same compound, the “COX-2 (AU)” value [2, 10] was 4.26 AU and 4.81 AU and 1.54 AU and 3.10 AU and 5.28 AU and 8.20 AU, the “COX-2 mRNA expression” value [2] was “significantly increased” and the “ICAM mRNA (AU)” value ([3]; after 7 days of treatment) was 1.22 AU. For the same compound, the “ICAM mRNA (AU)” value ([3]; after 14 days of treatment) was 1.47 AU, the “ICAM mRNA (AU)” value ([3]; after 30 days of treatment) was 1.81 AU and the “ICAM (AU)” value [3, 5] was 1.22 AU. The “ICAM (AU)” value [3, 6] was 1.47 AU, the “ICAM (AU)” value [3, 7] was 1.81 AU and the “ICAM (AU)” value [3, 8] was 1.39 AU and 0.80 AU and 1.09 AU and 1.61 AU and 1.11 AU and 1.15 AU and 1.56 AU and 1.06 AU and 1.68 AU. For the same compound, the “ICAM (AU)” value [3, 9] was 1.16 AU and 1.18 AU and 1.75 AU and 1.15 AU and 1.91 AU and 1.19 AU and 1.82 AU and 1.57 AU and 1.84 AU, the “ICAM (AU)” value [3, 10] was 2.67 AU and 1.63 AU and 1.69 AU and 1.50 AU and 1.54 AU and the “ICAM-1 mRNA expression” value [3] was “upregulated at day 14 and 30”. For the same compound, the “VCAM mRNA (AU)” value ([4]; after 7 days of treatment) was 1.55 ± 0.39 AU, the “VCAM mRNA (AU)” value ([4]; after 14 days of treatment) was 1.16 AU and the “VCAM mRNA (AU)” value ([4]; after 30 days of treatment) was 2.14 ± 0.49 AU. The “VCAM (AU)” value [4, 5] was 1.55 AU, the “VCAM (AU)” value [4, 6] was 1.16 AU and the “VCAM (AU)” value [4, 7] was 2.14 AU. The “VCAM (AU)” value [4, 8] was 3.49 AU and 0.85 AU and 2.06 AU and 2.51 AU and 1.65 AU and 0.61 AU and 0.94 AU and 0.27 AU and 5.23 AU, the “VCAM (AU)” value [4, 9] was 0.89 AU and 0.69 AU and 0.84 AU and 0.72 AU and 2.23 AU and 1.03 AU and 1.65 AU and 1.24 AU and 1.75 AU and the “VCAM (AU)” value [4, 10] was 3.48 AU and 1.87 AU and 2.99 AU and 1.64 AU and 0.72 AU. The “VCAM-1 mRNA expression” value [4] was “increased two-fold”.

In the case of `COC(=O)[C@@H]1CC2=CC(=O)CC[C@]2(C)[C@@]23O[C@@H]2C[C@@]2(C)[C@@H](CC[C@@]24CCC(=O)O4)[C@H]13` [Eplerenone], the “Vascular inflammatory changes / myocardial injury” value [1] is reported as “prevention; also recorded: completely prevented”, the “COX-2 (AU)” value [2, 5] is reported as 1.25 AU and the “COX-2 (AU)” value [2, 6] is reported as 2.02 AU. The “COX-2 (AU)” value [2, 7] was 2.28 AU, the “COX-2 (AU)” value [2, 11] was 1.19 AU and 2.85 AU and 0.60 AU (2×) and 1.16 AU and 0.82 AU and 1.86 AU and 0.91 AU and the “COX-2 (AU)” value [2, 12] was 1.56 AU and 1.04 AU and 0.70 AU and 1.41 AU and 3.78 AU and 1.86 AU and 6.19 AU and 1.87 AU and 0.99 AU and 1.92 AU and 0.86 AU. The “COX-2 (AU)” value [2, 13] was 2.44 AU and 0.55 AU and 1.97 AU and 3.41 AU and 3.71 AU and 3.04 AU and 2.11 AU and 1.34 AU and 1.92 AU and 12.21 AU, the “COX-2 mRNA expression” value [2] was “inhibition; also recorded: significantly reduced” and the “ICAM mRNA (AU)” value ([3]; after 7 days of treatment) was 0.83 AU. For the same compound, the “ICAM mRNA (AU)” value ([3]; after 14 days of treatment) was 1.19 AU, the “ICAM mRNA (AU)” value ([3]; after 30 days of treatment) was 1.22 AU and the “ICAM (AU)” value [3, 5] was 0.83 AU. For the same compound, the “ICAM (AU)” value [3, 6] was 1.19 AU, the “ICAM (AU)” value [3, 7] was 1.22 AU and the “ICAM (AU)” value [3, 11] was 0.91 AU and 0.89 AU (2×) and 0.40 AU and 1.23 AU and 0.58 AU and 1.00 AU. The “ICAM (AU)” value [3, 12] was 1.20 AU and 1.36 AU and 0.95 AU and 1.26 AU and 1.56 AU and 0.98 AU (2×) and 1.51 AU and 0.79 AU and 1.72 AU and 0.83 AU, the “ICAM (AU)” value [3, 13] was 1.54 AU and 2.06 AU and 1.01 AU and 1.21 AU and 1.26 AU and 1.06 AU and 0.60 AU and 0.99 AU and 2.92 AU and the “ICAM-1 mRNA expression” value [3] was “inhibition; also recorded: significantly reduced”. The “VCAM mRNA (AU)” value ([4]; after 7 days of treatment) was 0.56 ± 0.08 AU, the “VCAM mRNA (AU)” value ([4]; after 14 days of treatment) was 0.83 AU and the “VCAM mRNA (AU)” value ([4]; after 30 days of treatment) was 1.04 ± 0.14 AU. The “VCAM (AU)” value [4, 5] was 0.56 AU, the “VCAM (AU)” value [4, 6] was 0.83 AU and the “VCAM (AU)” value [4, 7] was 1.04 AU. For the same compound, the “VCAM (AU)” value [4, 11] was 0.67 AU and 0.58 AU and 0.22 AU and 0.57 AU and 0.53 AU and 1.00 AU, the “VCAM (AU)” value [4, 12] was 0.54 AU and 0.66 AU and 0.61 AU (2×) and 0.67 AU and 0.86 AU and 1.21 AU and 1.00 AU and 0.68 AU (2×) and 1.60 AU and the “VCAM (AU)” value [4, 13] was 1.42 AU (2×) and 1.29 AU and 1.49 AU and 1.27 AU and 0.79 AU and 0.52 AU and 0.57 AU and 0.61 AU and 4.01 AU. For the same compound, the “VCAM-1 mRNA expression” value [4] was “inhibition; also recorded: significantly reduced”.
